In publication PMC9664070, “The anticonvulsant phytocannabinoids CBGVA and CBDVA inhibit recombinant T-type channels” (Frontiers in Pharmacology, 2022):

Experiments:
[1] = target: T1, Cav3.1 (Homo sapiens, UniProt O43497); assay: FLIPR calcium 5 assay, inhibition of 10 mM Ca-induced fluorescence; assay type: cell-based; conditions: 10 µM compound, 10 mM Ca-induced fluorescence, HEK293 cells, mean ± SEM
T1 construct: expressed in transfected cells; host or cells: HEK293 Flp-In T-REx
Procedure: (§1) Calcium 5 dye (Molecular Devices, United States ) was used to investigate compound activities at T-type calcium channels using Flexstation III. HEK293 cells overexpressing Cav3.1, Cav 3.2, and Cav 3.3 cells were resuspended in Leibovitz’s L-15 media containing 1% FBS, 1% P/S and 15 mM glucose. 90 µl of the resuspended cells (120,000 cells/well) were plated in a black-walled, 96-well microplate (Corning, NY, United States ) and incubated overnight in humidified air at 37°C. Channel expression was induced with tetracycline (2 μg/ml, Sigma-Aldrich) at plating. On the day of the assay, 90 µl of HBSS containing 5% Calcium dye (bulk kit) and 2.5 mM probenecid (Invitrogen, United States ) was added to each well and incubated for 1 h at 37°C. Change in fluorescence was measured in a FlexStation III plate reader every 2 s (ʎexcitation = 485 nm, ʎemission = 525 nm) for the duration of the experiment at 37°C. After 2 min baseline recording, drugs (20 µL) were added and read for 5 min, followed by 10 mM CaCl2 (20 µl) and read for a further 3 min.
(§2) Unless otherwise stated, five independent experiments were performed for each condition, with each experiment conducted in duplicate. For the calcium assay, change in fluorescence by 10 mM Ca in the presence of drugs was normalised to change in fluorescence caused by 10 mM Ca in the presence of vehicle only to allow for comparison. In the Alphascreen assay, results were normalised to EC80 of ML-186 after subtraction of basal ERK phosphorylation (presence of a vehicle and 0.2% DMSO) to allow for easy comparison between phytocannabinoid activities. We fitted all concentration-response curves to a 4-parameter sigmoidal inhibitory response curve in GraphPad Prism (Version 6 GraphPad Software Inc., CA, United States) to derive IC50 and Emax values. All statistical analyses were conducted with GraphPad Prism. Two-tailed, unpaired t-tests were used to compare two data points and one-way ANOVA for more than two data points with Tukey post-hoc analysis. p-values < 0.05 were considered statistically significant.
(§3) Our investigation of T-type channels began with a single-point screen, as described by [Bladen et al. (2021)]. We screened the inhibitory effect of 10 µM phytocannabinoids on the change in fluorescence elicited by the addition of 10 mM Ca^2+ in cells expressing Cav3.1, Cav3.2 or Cav3.3 channels ([Xie et al., 2007]; [Bladen et al., 2021]).

[2] = target: T2, Cav3.3 (Homo sapiens, UniProt Q9P0X4); assay: as above; assay type: cell-based; conditions: 10 µM compound, HEK293 cells, mean ± SEM
T2 construct: expressed in transfected cells; host or cells: HEK293 Flp-In T-REx
Procedure: as §1, §2, §3

[3] = tested on: hyperthermia-induced seizures; parameters: method as in earlier work; conditions: Scn1a+/- mice, ref Anderson et al., 2019, 2021a, 2021b; cited from earlier work
[4] = target: T3, Cav3.2 (Homo sapiens, UniProt O95180); assay: FLIPR calcium 5 assay, inhibition of 10 mM Ca-induced fluorescence; assay type: cell-based; conditions: for % Inhibition of Fluorescence Cav3.2: 10 µM compound, 10 mM Ca-induced fluorescence, HEK293 cells, mean ± SEM
T3 construct: expressed in transfected cells; host or cells: HEK293 Flp-In T-REx
Procedure: as §1, §2, §3

[5] = tested on: Cav3.1; parameters: method as in Ross et al., 2008; conditions: ref Ross et al., 2008; read-out: IC50, inhibition of peak Cav3.1 currents; cited from earlier work
[6] = tested on: Cav3.2; parameters: method as in Ross et al., 2008; conditions: ref Ross et al., 2008; read-out: IC50, inhibition of peak Cav3.2 currents; cited from earlier work

T2 sequence (Q9P0X4 whole entry): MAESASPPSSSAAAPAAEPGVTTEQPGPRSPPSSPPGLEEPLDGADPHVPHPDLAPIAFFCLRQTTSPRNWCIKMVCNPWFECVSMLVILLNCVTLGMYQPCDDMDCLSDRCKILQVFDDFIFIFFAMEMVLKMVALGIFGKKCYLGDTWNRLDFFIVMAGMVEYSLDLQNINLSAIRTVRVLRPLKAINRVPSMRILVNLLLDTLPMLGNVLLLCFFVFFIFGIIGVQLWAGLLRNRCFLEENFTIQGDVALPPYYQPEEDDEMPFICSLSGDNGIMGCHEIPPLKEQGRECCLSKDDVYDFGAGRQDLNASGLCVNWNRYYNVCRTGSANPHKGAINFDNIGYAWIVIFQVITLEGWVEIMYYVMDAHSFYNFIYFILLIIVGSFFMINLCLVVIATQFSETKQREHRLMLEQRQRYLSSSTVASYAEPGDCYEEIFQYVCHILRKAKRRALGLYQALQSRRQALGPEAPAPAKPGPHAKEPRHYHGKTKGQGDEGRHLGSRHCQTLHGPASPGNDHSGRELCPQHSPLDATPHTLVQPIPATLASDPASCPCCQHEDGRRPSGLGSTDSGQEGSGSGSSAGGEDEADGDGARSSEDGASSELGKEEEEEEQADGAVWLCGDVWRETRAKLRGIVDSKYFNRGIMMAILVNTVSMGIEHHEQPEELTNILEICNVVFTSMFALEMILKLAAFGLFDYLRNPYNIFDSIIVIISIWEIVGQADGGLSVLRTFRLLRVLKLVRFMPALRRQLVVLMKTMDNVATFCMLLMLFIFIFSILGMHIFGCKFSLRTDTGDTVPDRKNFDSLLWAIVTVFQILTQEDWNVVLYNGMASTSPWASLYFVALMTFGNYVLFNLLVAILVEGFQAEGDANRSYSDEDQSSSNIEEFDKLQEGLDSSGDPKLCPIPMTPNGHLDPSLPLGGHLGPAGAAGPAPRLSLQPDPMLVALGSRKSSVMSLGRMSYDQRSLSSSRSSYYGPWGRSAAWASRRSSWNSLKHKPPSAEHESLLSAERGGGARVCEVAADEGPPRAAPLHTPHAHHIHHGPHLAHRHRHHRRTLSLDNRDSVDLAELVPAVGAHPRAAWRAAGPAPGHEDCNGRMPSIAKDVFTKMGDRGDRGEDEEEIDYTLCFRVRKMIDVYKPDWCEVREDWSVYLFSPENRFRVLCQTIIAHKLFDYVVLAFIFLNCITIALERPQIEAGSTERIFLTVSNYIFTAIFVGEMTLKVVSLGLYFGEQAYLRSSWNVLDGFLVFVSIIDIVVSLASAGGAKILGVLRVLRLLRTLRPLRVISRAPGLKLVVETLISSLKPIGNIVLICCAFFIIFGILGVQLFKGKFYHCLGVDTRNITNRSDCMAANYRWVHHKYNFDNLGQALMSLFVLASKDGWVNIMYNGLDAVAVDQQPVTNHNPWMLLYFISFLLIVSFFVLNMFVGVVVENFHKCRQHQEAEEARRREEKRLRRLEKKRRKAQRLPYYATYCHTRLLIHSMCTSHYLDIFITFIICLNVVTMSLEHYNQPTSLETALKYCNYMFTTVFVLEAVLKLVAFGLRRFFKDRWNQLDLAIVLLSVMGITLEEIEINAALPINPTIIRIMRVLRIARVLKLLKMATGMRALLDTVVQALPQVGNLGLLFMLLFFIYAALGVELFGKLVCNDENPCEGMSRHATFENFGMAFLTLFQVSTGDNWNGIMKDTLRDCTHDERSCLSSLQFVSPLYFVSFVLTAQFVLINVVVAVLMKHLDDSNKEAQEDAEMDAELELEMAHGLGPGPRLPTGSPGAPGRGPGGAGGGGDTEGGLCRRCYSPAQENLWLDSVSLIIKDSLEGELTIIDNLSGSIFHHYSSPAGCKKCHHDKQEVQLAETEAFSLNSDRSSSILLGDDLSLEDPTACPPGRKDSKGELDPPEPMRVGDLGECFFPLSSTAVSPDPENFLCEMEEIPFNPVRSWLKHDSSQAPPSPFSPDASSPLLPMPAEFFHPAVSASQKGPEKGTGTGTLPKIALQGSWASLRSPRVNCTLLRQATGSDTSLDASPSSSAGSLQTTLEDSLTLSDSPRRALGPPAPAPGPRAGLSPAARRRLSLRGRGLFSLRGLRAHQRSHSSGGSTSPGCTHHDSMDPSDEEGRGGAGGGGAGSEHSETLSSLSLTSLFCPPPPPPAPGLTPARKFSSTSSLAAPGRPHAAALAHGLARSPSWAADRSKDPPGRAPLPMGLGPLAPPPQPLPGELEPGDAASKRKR
T3 sequence (O95180 whole entry): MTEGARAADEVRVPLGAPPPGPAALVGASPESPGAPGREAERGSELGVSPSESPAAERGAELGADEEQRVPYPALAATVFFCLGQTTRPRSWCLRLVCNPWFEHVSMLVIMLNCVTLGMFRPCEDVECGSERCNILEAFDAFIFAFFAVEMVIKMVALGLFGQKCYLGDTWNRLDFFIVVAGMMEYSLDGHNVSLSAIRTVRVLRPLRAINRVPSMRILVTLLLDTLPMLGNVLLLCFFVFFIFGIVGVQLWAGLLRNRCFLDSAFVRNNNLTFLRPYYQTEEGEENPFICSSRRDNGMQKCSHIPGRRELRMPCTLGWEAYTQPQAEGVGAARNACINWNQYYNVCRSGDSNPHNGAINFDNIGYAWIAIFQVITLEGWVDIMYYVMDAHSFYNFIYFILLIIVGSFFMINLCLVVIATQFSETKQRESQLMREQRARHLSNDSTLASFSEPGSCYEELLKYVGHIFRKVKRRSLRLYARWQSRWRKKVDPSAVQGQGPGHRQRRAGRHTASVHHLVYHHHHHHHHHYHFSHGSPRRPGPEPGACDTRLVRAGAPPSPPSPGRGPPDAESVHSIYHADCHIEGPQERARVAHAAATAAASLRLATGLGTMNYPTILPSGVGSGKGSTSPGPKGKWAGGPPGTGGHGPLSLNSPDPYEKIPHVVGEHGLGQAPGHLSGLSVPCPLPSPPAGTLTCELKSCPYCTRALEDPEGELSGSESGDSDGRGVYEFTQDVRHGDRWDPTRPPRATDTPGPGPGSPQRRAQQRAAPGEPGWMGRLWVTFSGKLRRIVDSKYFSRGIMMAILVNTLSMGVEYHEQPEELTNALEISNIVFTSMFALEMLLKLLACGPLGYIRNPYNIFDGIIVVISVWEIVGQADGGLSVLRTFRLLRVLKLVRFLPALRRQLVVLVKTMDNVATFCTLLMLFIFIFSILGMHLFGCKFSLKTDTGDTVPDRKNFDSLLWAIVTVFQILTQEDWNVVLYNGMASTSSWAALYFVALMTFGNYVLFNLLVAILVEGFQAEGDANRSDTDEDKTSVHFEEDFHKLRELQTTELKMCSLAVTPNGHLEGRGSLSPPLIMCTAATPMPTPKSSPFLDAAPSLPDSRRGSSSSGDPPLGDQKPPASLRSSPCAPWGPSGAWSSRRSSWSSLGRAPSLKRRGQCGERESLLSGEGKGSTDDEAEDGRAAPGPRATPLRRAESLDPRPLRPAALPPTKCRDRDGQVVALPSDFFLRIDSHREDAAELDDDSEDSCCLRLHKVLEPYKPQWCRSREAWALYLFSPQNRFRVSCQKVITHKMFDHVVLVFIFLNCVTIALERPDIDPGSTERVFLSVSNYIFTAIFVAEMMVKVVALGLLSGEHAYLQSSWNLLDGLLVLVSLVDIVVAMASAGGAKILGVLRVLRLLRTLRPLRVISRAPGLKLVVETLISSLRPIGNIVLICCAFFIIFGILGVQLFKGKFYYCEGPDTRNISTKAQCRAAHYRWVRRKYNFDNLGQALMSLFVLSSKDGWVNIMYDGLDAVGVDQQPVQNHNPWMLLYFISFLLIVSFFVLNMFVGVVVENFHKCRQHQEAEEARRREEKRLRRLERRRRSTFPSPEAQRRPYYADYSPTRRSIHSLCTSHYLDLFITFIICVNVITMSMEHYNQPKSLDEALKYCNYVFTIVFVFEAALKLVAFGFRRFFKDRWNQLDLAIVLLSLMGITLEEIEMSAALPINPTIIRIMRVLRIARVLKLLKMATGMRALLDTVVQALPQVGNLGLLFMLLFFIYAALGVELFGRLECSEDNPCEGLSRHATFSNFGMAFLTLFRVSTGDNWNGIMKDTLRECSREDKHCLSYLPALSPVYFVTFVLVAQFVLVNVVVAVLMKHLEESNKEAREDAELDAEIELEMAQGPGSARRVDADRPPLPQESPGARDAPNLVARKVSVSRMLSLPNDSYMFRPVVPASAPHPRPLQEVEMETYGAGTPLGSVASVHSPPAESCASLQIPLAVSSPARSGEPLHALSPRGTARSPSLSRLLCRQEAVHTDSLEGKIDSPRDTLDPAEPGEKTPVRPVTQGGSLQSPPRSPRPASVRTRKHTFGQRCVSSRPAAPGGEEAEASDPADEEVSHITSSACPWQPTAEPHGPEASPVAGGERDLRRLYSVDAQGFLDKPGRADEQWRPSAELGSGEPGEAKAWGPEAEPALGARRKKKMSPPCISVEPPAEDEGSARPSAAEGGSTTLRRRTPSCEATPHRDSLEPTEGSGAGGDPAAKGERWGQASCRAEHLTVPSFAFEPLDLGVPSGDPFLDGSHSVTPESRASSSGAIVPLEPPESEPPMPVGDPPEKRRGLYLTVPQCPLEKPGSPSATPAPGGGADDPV

Compound | % Inhibition of Fluorescence Cav3.1 [1] [%] | % Inhibition of Fluorescence Cav3.3 [2] [%] | effect against hyperthermia-induced seizures [3] | % Inhibition of Fluorescence Cav3.2 [4] [%] | effect on influx of Ca2+ ions in cells expressing Cav3.2 ([4]; 10 µM, FLIPR) | IC50 [5] [µM] | IC50 [6] [µM]
CCCCCc1cc2c(c(O)c1C(=O)O)C=CC(C)(CCC=C(C)C)O2 (stereo not drawn) [CBCA, cannabichromenic acid] | 59 ± 9 | 11 ± 10 | anticonvulsant |  |  |  | 
CCCc1cc2c(c(O)c1C(=O)O)C=CC(C)(CCC=C(C)C)O2 (stereo not drawn) [CBCVA, cannabichrovarinic acid] | 51 ± 8 | 34 ± 12 | anticonvulsant | 62 ± 8 |  |  | 
CCCc1cc(O)c2c(c1)OC(C)(CCC=C(C)C)C=C2 (stereo not drawn) [CBCV] |  | 1 ± 1 |  | -37 ± 21 | appeared to increase the influx of Ca^2+ ions |  | 
C=C(C)[C@@H]1CCC(C)=C[C@H]1c1c(O)cc(CCCCC)cc1O [CBD, cannabidiol] |  |  |  |  |  | ~1 | ~1
